For one assay, the system named is EAE. The experiment in a line: EAE model for multiple sclerosis, clinical score. The class given is in vivo, CSJL/F1 mice. As for the experimental part: The EAE model in CSJL/F1 mice is an established model for multiple sclerosis. Disease is induced in all mice by the injection of the encephalitogenic emulsion (MSCH/CFA, 0.05 ml injected into the left foot-pad of each mouse). Treatment with Compound A at 10 and 20 mg/kg or solvent (5% DMSO, 10% PEG400, 5% Solutol HS15, 5% Tween 80) by intraperitoneal injection, was started from day 1 of the study and administered twice daily in the first 9 days and then once daily until the end of the study. Scoring of EAE clinical signs were initiated from the 10th day post-EAE induction and continued daily. The clinical signs were recorded according to a grading system described in the table 1.

Another assay deals with A375 cells. The experiment in a line: Viability of A375 cancer cells (WST-1 reagent). The class given is cell-based. The following applies: viability 72 hours post treatment. As to the method:
A375 cells (CRL-1619, Melanoma cancer cells, American Type Culture Collection (“ATCC”), Manassas Va., USA) were cultured with RPMI and 10% FBS (300 cells per well). Twenty-four hours after seeding the cells were treated with different concentrations of Compound A. Viability of the cells was tested seventy-two hours post treatment using WST-1 reagent (Roche). The LD50s were calculated using Prism software (Graphpad). Compound A killed the A375 cancer cells with LD50 of 20 μM (FIG. 2A).

In assay [1] the test system is D122 Lewis lung cancer cells. The experiment in a line: Formation of lung cancer metastasis, D122 cells injected into tail vein. The class given is in vivo, C57BL mice. The following applies: 20 mg/kg intraperitoneal twice daily for 28 days. As for the experimental part:
Suppressive activity against formation of lung cancer metastasis was tested using D122 Lewis lung cancer cells injected into the tail vein of male C57BL mice. Animals were treated twice daily by intraperitoneal injection of Compound A at 20 mg/kg or solvent (5% DMSO, 10% PEG400, 5% Solutol HS15, 5% Tween 80). Treatment was continued for 28 days. On day 33, animals were sacrificed, lungs were removed and weighed. When the Compound A and vehicle groups are compared, there is about a 50% decrease in added lung weight in the Compound A group (FIG. 3). The average weight gain in the control group was 250 mg while in the Compound A group it was only 125 mg. Analyzing the data using two tailed T test indicate a the data is significant (pValue=0.0085). The effect seen following administration of Compound A, supports the claim that this compound has anti-metastatic activity.

The test system of another assay is oxazolone-induced DTH. The experiment in a line: Oxazolone-induced delayed-type hypersensitivity (DTH), ear swelling. The class given is in vivo, BALB/c mice. The following applies: oral, 1 hour before oxazolone challenge; compared with the control. The text has this: A delayed-type hypersensitivity (DTH) reaction is an expression of cell-mediated immunity and plays a major role in the pathology and chronicity of many inflammatory disorders. Delayed-type hypersensitivity (DTH) reactions can be induced by various allergens, including oxazolone, 2,4-dinitrofluorobenzene (DNFB) and sheep red blood cells (SRBCs). One of the most characteristic DTH phenomena is contact hypersensitivity, which is characterized by swelling and by increased tissue levels of cytokines. Contact hypersensitivity (CHS) is a T cell-mediated immune reaction in response to cutaneous sensitization and challenge with reactive haptens that are capable of binding directly to soluble and cell-associated proteins and recognized by T cells in the context of self-MHC products. The cells that recognize antigen-protein complex in the skin are the Langerhans cells (LCs). After topically allergen application, Langerhans cells (LCs), the major antigen-presenting cells (APCs) for the induction of immune responses in skin, show enhanced expression of surface MHC class II molecules, and start to emigrate from the skin to regional lymph nodes where specific lymphocyte activation is thought to occur. After a second contact with the hapten, T cells are first recruited into tissues and then activated by antigen-presenting cells to produce cytokines that mediate local inflammation. Myeloperoxidase (MPO) is an enzyme exclusively present in neutrophil granules, which is commonly used as an index of granulocyte infiltration, and its inhibition is indicative of an anti-inflammatory action.
The goal of the present study is to examine the effects of Compounds A, B and C on oxazolone-induced DTH. […]
Ear swelling response was determined by ear thickness measured with a micrometer before and 24 hours after oxazolone challenge and reported as the mean change in ear thickness (ΔT±S.E.M.). Percent suppression of ear swelling response was calculated as % suppression=[1−(ΔT of sensitized mice exposed to experimental treatment/ΔT of sensitized mice exposed to vehicle treatment)]×100. […]

Another assay has as its system A375 melanoma cell line. The experiment in a line: TRANSWELL cell migration of A375 melanoma cells. The class given is cell-based. The following applies: Homo sapiens, A-375, 24 hours, read-out: IC50 of inhibitory effect on cell-migration. As to the method: The A375 cells were cultured with RPMI and 10% FBS. The cells were starved for 24 hours in medium without FBS. At the end of the starvation, 5×10^4 cells in medium without FBS were placed in the upper chamber of 24-well, TRANSWELL apparatus (Corning TRANSWELL® polycarbonate membrane inserts, 5 μm pore size with solvent (DMSO/PEG400) or different concentrations of Compound A, B, C or D. Medium with FBS and compound A, B, C or D was added to the bottom chamber. Twenty-four hours later the cells from the upper chamber were removed with a cotton swab. Cells that migrated to the lower side of the membrane were stained with Calcein-AM (Sigma) and images were taken with a fluorescence microscope. The number of migrating cells was quantified by Image J software and the IC50 values were calculated using Prism software (Graphpad).

pIC50: −log10 of the molar value.

From patent publication US20110129463A1, “Quinazolin-4(3A)-One Derivatives and Methods of Use Thereof” (Proteologics, Ltd., priority 2009, published 2011) come the findings set out here.

Regarding `O=c1c2ccccc2nc(/C=C/c2ccc(O)cc2)n1-c1cccc([N+](=O)[O-])c1` [Compound A, 2-[2-(4-Hydroxyphenyl)-vinyl]-3-(3-nitrophenyl)-4-quinazolone], the “effect on EAE clinical signs” value in the assay with EAE (10 mg/kg intraperitoneal) was “No effect”. Besides, the “EAE clinical signs relative to the score for water and vehicle controls” value with EAE (20 mg/kg intraperitoneal) is given as “about half”. Besides, the “LD50 (killing of A375 cancer cells)” value in the assay with A375 cells came to 20 µM. In assay [1] (day 33, control group 250 mg), the “average weight gain (added lung weight)” value amounted to 125 mg. The “decrease in added lung weight vs vehicle group” value in assay [1] (lungs weighed on day 33) is on record as approximately 50%. Further, the “anti-inflammatory activity in DTH study (FIG. 7)” value (“anti-inflammatory activity” for short) with oxazolone-induced DTH is listed as “same anti-inflammatory activity as the control”. Moreover, the pIC50 with A375 melanoma cell line is 7.00.
`Cn1ccc(/C=C/c2nc3ccccc3c(=O)n2-c2cccc(N(O)O)c2)n1` [Compound D, (E)-3-(3-(dihydroxyamino)phenyl)-2-(2-(1-methyl-1H-pyrazol-3-yl)vinyl)quinazolin-4(3H)-one]: the pIC50 in the assay with A375 melanoma cell line was 7.21.
As for `COc1ccc(/C=C/c2nc3ccccc3c(=O)n2-c2cccc([N+](=O)[O-])c2)cc1` [Compound B, (E)-2-(4-methoxystyryl)-3-(3-nitrophenyl)quinazolin-4(3H)-one], the “anti-inflammatory activity” value with oxazolone-induced DTH is recorded as “same anti-inflammatory activity as the control”. Also, the pIC50 with A375 melanoma cell line is 7.35.
On to `O=c1c2ccccc2nc(/C=C/c2ccc(Br)cc2)n1-c1cccc([N+](=O)[O-])c1` [Compound C, (E)-2-(4-bromostyryl)-3-(3-nitrophenyl)quinazolin-4(3H)-one], for which the “anti-inflammatory activity” value with oxazolone-induced DTH was “same anti-inflammatory activity as the control”. Moreover, the pIC50 with A375 melanoma cell line is 6.04.
